Measured values as given in patent US20180055816A1, “PYRANONAPHTHOQUINONE COMPOUNDS AND METHODS OF USE THEREOF” (University of Kentucky Research Foundation, priority 2016, published 2018).

Tests used:
GSSG = assay: Quantification of glutathione disulfide (GSSG) in HCT116 cells; assay type: cell-based, human; settings: HCT116, 2 μM, 5 h
Protocol: Cells were treated with 2 μM of the indicated compounds or DMSO as control for 5 h. Quantification of GSSG was essentially performed using the manufactures instructions for a microplate assay for GSH/GSSG (Oxford Biomedical Research, Inc, Oxford, Mich.). A total number of 0.5×10^6 cells were collected in 1.5 ml centrifuge tubes containing ice-cold buffer with the thiol scavenger to keep GSSG in its oxidized form. The cells were homogenized with a Teflon pestle and the cell suspension sonicated in icy water for 2-3 minutes. Ice-cold metaphosphoric acid was added to deproteinate the samples. The samples were centrifuged at 1000×g at 4° C. and the supernatants were used for determining the GSSG concentration according to the manufactures protocol using a microplate reader with 405 nm filter. The change in GSSG levels in the indicated compound-treated samples was expressed as fold change compared to control (DMSO) treated samples.

p70S6K phosphorylation = p70S6K phosphorylation in HCT116 cells (Western blot); assay type: cell-based, human; settings: HCT116, 12 h; 2 μM FB or UCF76-A, 100 nM rapamycin, 0.5 μM AZD8055
Protocol: (§1) HCT116 cells were treated with 1 μM MK2206 and 100 nM PD0325901 alone and in combination, 100 nM rapamycin, 0.5 μM AZD8055, 2 μM UCF76-A or 2 μM FB for 12 h followed by Western blot analysis for the indicated proteins.
(§2) Cells were lysed in NP-40 lysis buffer (50 mM Tris-HCl, pH 7.5, 150 mM NaCl, 1 mM EDTA, 1% NP-40, 10% glycerol, protease and phosphatase inhibitor cocktail). Western blot analysis were performed using equivalent total protein loadings as described previously. For immunoprecipitation, the cell lysates were incubated with the indicated antibody overnight followed by incubation with a 50% slurry of protein G sepharose beads for 3 h at 4° C. The beads were washed three times with the lysis buffer, and the immunoprecipitated protein complexes were resuspended in 2× Laemmli sample buffer followed by western blot analysis.

[1] = tested on: intracellular reactive oxygen species (ROS); assay: Intracellular ROS production, CellROX Deep Red flow cytometry, HCT116 cells; assay type: cell-based, human; settings: HCT116, 2 μM, 1 h
Protocol: (§3) Compounds that pass this single dose filter are then tested in a CRC (HCT116) in vitro cytotoxicity assay and, in parallel, an in vitro assay to assess propensity for intracellular reactive oxygen species (ROS) production using the redox sensitive probe CeIIROX® Deep Red reagent (Invitrogen) by flow cytometry analysis (47).
The ROS production was determined using the CellROX Deep Red Flow Cytometry Assay Kit according to the manufacturer's protocol (Life Technologies). Briefly, cells were treated with 2 μM of the indicated compounds or DMSO as control for 1 h. After treatment, cells were incubated with 0.5 μM of CellROX Deep Red reagent for 1 h at 37° C., washed twice with PBS and immediately analyzed by a FACScan flow cytometer. For the measurement of cellular H2O2 level, cells were treated with 2 μM of the indicated compounds for 5 h.

Prx1 = molecular target: T1, Prx1 (Homo sapiens, UniProt Q06830); assay: Prx1 catalytic activity inhibition; assay type: biochemical; settings: recombinant Prx1, 1 hour incubation
T1 sequence (Q06830 1-199): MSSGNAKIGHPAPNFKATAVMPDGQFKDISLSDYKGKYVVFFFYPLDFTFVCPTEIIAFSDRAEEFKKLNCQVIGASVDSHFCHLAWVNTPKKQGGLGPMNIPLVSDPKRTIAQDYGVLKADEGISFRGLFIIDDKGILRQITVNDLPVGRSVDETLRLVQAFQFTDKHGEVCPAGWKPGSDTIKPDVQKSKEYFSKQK
Protocol: The recombinant Prx1 protein was incubated with the indicated concentration of FB, 12, or conoidin A for 1 hour. Data are presented as mean±s.e.m. (n=3 technical replicates per condition). […]. Statistical significance was determined by the Student's t-test.
Prx1 and Grx3 are antioxidant enzymes known to regulate oxidative stress. Prx1 catalyzes peroxide reduction of H2O2, whereas Grx3 functions as glutathione (GSH)-dependent oxidoreductase by participating in the conversion of reduced GSH to oxidized glutathione disulfide (GSSG). […] While Grx3 biochemical assays are lacking, FB and active analogs could lead to a decrease in GSH levels and an increase in GSSG levels in HCT116 cells (FIGS. 23A-B). As antioxidant enzymes utilize cysteine-containing active sites to reduce various cellular peroxide or disulfide substrates, the role of Prx1/Grx3 cysteines in FB ligand-binding was assessed through replacing their cysteines to alanines. […] Finally, mass spectrometry analysis confirmed the covalent modification of Prx1 and Grx3 by FB at these specific target sites. These cumulative studies provide strong validation of Prx1 and Grx3 as the predominate molecular targets of PNQs in cancer cells.

4E-BP1 phosphorylation = 4E-BP1 phosphorylation in DLD-1 colon cancer cells (Western blot); assay type: cell-based, human; settings: DLD-1 cells, 2 μM, 12 hours
Protocol: Cells were treated with 100 nM rapamycin, 0.5 μM AZD8055, 2 μM FB, 2 μM UCF76-A or DMSO control for 12 hours followed by Western blot analysis for the indicated proteins.
as §2

HCT116 cells = assay: Cell growth / cytotoxicity in HCT116 cells; assay type: cell-based, human; settings: HCT116; 0.5 μM FB or UCF76-A versus 100 nM rapamycin, 0.5 μM AZD8055
Protocol: as §3
(§4) Cell growth was assessed as described previously. Briefly, 5×10^4 cells were seeded in 6-well plates in triplicates. After 24 h, cells were treated with the indicated compounds and incubated at 37° C. The cells were cultured for 3 days and the number of viable cells was counted using the Vi-CELL XR 2.03 (Beckman Coulter, Brea, Calif.). For apoptosis, cells were analyzed by flow cytometry using the Annexin V-FITC Apoptosis Detection Kit according to the manufacturer's protocol (BD Biosciences, San Jose, Calif.).

S6 phosphorylation = S6 phosphorylation in HCT116 cells (Western blot); assay type: cell-based, human; settings: HCT116, 12 h; 2 μM FB or UCF76-A, 100 nM rapamycin, 0.5 μM AZD8055
Protocol: as §1, §2

[2] = tested on: colorectal cancer (CRC) cell lines; assay: Cytotoxicity against a panel of colorectal cancer cell lines; assay type: cell-based, human; settings: 72 h
Source text: Human colon (HCT116, DLD-1, T84, HCT15, RKO, SW620) and breast (MDA-MB-231) cancer cell lines were obtained from the American Type Culture Collection (ATCC, Manassas, Va.) and cultured in the appropriate medium with supplements as recommended by ATCC. […] In addition, all the cell lines are routinely checked for morphologic and growth changes, to probe for cross-contaminated, or genetically drifted cells. If any of these features occur, we use the short tandem repeat (STR) profiling service by ATCC to re-authenticate the cell lines. HCT116 cells with stable knockdown of 4E-BP1 and its control stable transfectants were generated as described previously {Ye, 2014 #1007}. For transient transfection, cells were transiently transfected with DNA using Lipofectamine 3000 according to the manufacturer's protocol (Life Technologies, Carlsbad, Calif.).
as §4

caspase 3 = assay: Caspase 3 activation / cleaved PARP in HCT116 cells (Western blot); assay type: cell-based, human; settings: HCT116, 2 μM, 12 h
Protocol: as §1, §2

## CCCC1OC2CC(=O)OC2C2=C1C(=O)c1c(O)cccc1C2=O (stereo not shown) [FB, frenolicin B]
GSSG
  GSSG levels: increase
p70S6K phosphorylation
  inhibition of p70S6K phosphorylation: only weakly inhibited
[1]
  cellular ROS: marked increase
Prx1
  inhibition of Prx1 catalytic activity: potently inhibit
4E-BP1 phosphorylation
  inhibition of 4E-BP1 phosphorylation: selectively inhibit
HCT116 cells
  inhibition of CRC cell growth compared with mTOR inhibitors: more potent than mTOR inhibitors
S6 phosphorylation
  inhibition of S6 phosphorylation: did not inhibit
[2]
  cytotoxicity against CRC cell lines: potent cytotoxicity
[2]; listed as frenolicin B
  cytotoxicity against CRC cell lines: potent cytotoxic activity
Caspase 3
  activation of caspase 3 with induction of cleaved PARP: potent activators
